Measured values published in paper PMC9865903, “Improving the Antimycobacterial Drug Clofazimine through Formation of Organic Salts by Combination with Fluoroquinolones” (International Journal of Molecular Sciences, 2023).
Where “and” joins values, the source holds several entries; their conditions need not be identical. Equal entries are not always repeated.

Key:
[1] = Simultaneous thermal analysis (STA: thermogravimetry with DSC); assay type: physicochemical; conditions: heating from room temperature to 500 °C at 5 °C/min, value in parentheses after melting point
Text: Considering that thermal stability is an important issue for any API or derived formulation, both API-OSs were next tested by simultaneous thermal analysis (STA) which combines thermogravimetry with differential scanning calorimetry. Thermograms were obtained for the API-OSs and their parent fluoroquinolones (Figure 2), providing their respective melting points and decomposition temperatures. As shown in both Figure 2 and Table 1, the two new API-OSs have melting points lower than those of their respective parent APIs, as expected, but in all cases well above 100 °C, which is generally acknowledged as the threshold temperature separating common ILs from other types of GUMBOS. […] Therefore, the thermostability of this parent antimycobacterial drug is improved when it is forming an ionic pair with the selected fluoroquinolones.
The thermal stability of the compounds was evaluated using a Hitachi STA7200RV instrument (Scancsi, Vila Nova de Gaia, Portugal), following the manufacturer’s instructions. The compounds were subjected to heating from room temperature to 500 °C at a speed of 5 °C/min, obtaining the thermograms provided in Figure 2.

physchem = conditions: organic solvent or mixture
Text: DMSO has been previously established as an adequate solvent for studies focused on Clf, including susceptibility testing on Mycobacteria.

M. avium 2447 SmT = assay: Antimycobacterial activity in axenic culture, broth microdilution with resazurin; assay type: cell-based; conditions: Mycobacterium avium, 168 h, 7 days at 37 °C, 4PL interpolation, parentheses = 95% confidence interval
Procedure: The susceptibility of M. avium to the API-OSs and their parent drugs was first assessed in axenic culture to determine the IC50 of each test compound. To this end, the bacteria were incubated with increasing concentrations of the compounds for 7 days at 37 °C and their viability was assessed by the resazurin assay.
Mycobacterium avium 2447 smooth transparent (SmT) strain (kindly provided by Dr. F. Portaels, Institute of Tropical Medicine, Antwerp, Belgium) was grown to the mid-log phase in Middlebrook 7H9 medium (BD Difco^TM, Fisher Scientific, Porto Salvo, Portugal) containing 0.2% of glycerol (VWR International, Carnaxide, Portugal) and 10% of Albumin-Dextrose-Catalase (ADC, Merck KGaA, Darmstadt, Germany) supplement at 37 °C, as described previously.
The antimicrobial activity of the different compounds was assessed by broth microdilution, following the Clinical and Laboratory Standards Institute (CLSI) guidelines and as described previously, using stock solutions of the compounds in DMSO, due to the negligible solubility of Clf in water. Briefly, M. avium was grown in Middlebrook 7H9 medium to the exponential phase and 1 to 5 × 10^5 CFU/mL of bacteria was seeded in 96-well plates with increasing concentrations of the compounds. […] After 6 days of incubation, bacterial viability was assessed by resazurin reduction. Then, 10% (v/v) of resazurin (Sigma-Aldrich, St. Louis, MO, USA) at 2.5 mM in phosphate-buffered saline (PBS, Sigma-Aldrich, St. Louis, MO, USA) was added to each well, and after 24 h of incubation at 37 °C, the fluorescence of resorufin, resulting from the conversion of resazurin by metabolically active cells, was measured at λex = 530 nm and λem = 590 nm in a Synergy^TM Mx microplate reader from BioTek (Agilent Technologies Inc., Santa Clara, CA, USA) using the Gen5 software also from BioTek. The results are expressed as the percentage of the fluorescence obtained in experimental wells relative to the fluorescence obtained in nontreated wells.
The viability of both mycobacteria and host macrophages was determined by resazurin reduction as detailed above. […]

[2] = Toxicity to infected host macrophages, resazurin reduction; assay type: cell-based, murine (C57BL/6 mice); conditions: male, C57BL/6, mouse; BMM infected with M. avium 2447 SmT, 5 days at 37 °C and 7% CO2, resazurin; 4PL interpolation; parentheses = 95% confidence interval; read-out: LC50
Procedure: Considering that, after invading its mammalian host, M. avium replicates mainly inside macrophages, the toxicity of test compounds to infected murine bone marrow-derived macrophages (BMM) was also assessed. This was carried out by treating BMM infected with M. avium 2447 SmT with increasing concentrations of the test compounds for 5 days at 37 °C and 7% CO2. Macrophage viability was assessed through a resazurin reduction assay. As shown in Table 1 and Figure 4, though being more toxic to mammalian cells than their parent fluoroquinolones, the Clf-derived OSs seem less toxic to BMM than Clf itself. We are aware that the confidence intervals for LD50 values shown in Table 1 for Clf and its derived OSs have some degree of overlap which, alongside the large standard deviations depicted on the macrophage viability curves shown in Figure 4, are not statistically significant different.
Macrophages were derived from the bone marrow of male C57BL/6 mice bred at the i3S animal facility and infected with M. avium 2447 SmT as described previously. Immediately after infection, BMM were treated with different concentrations of each compound. Each condition was tested in triplicate. The intracellular growth of M. avium 2447 SmT was evaluated 5 days after infection, by colony-forming units (CFUs) assay, plating the bacteria in Middlebrook 7H10 agar (BD DifcoTM, Fisher Scientific, Porto Salvo, Portugal) supplemented with 10% Oleic Acid-Albumin-Dextrose-Catalase (OADC; Merck KGaA, Darmstadt, Germany) for at least 7 days at 37 °C. The viability of macrophages was determined by resazurin reduction as detailed above for mycobacteria.
The viability of both mycobacteria and host macrophages was determined by resazurin reduction as detailed above. IC50 (concentration that inhibits 50% of mycobacterial growth after 7 days of incubation) and LD50 (concentration that inhibits 50% of macrophage viability) values were interpolated by fitting the experimental data through a 4PL nonlinear sigmoidal curve using the GraphPad Prism software version 9 (GraphPad Software Inc., La Jolla, CA, USA). […]

[3] = Net charge at physiological pH; assay type: physicochemical; conditions: at physiological pH 7.4
Procedure: Table 1 Physico-chemical properties and in vitro effects of the API-OSs and their parent drugs. The compounds were tested against both axenic cultures of M. avium 2447 SmT (IC50) and mammalian host cells (bone marrow-derived macrophages, BMM, LC50) infected with M. avium 2447 SmT. ^1. | column: Net Charge ^2

[4] = parameters: method as in PMID 7617530, PMID 35300192; conditions: due to poor solubility in aqueous/polar media; cited from earlier work
[5] = in vivo, po; cited from earlier work
[6] = cited from earlier work

Structure (SMILES) | Decomposition Temperature [1] | solubility (physchem) | IC50 (M. avium 2447 SmT) [µM] | CC50 at 5 days [2] [µM] | Net Charge [3] | Biopharmaceutics Classification System class [4] | absorption rates in humans [5] [%] | solubility in water [6]
CC(C)/N=c1\cc2n(-c3ccc(Cl)cc3)c3ccccc3nc-2cc1Nc1ccc(Cl)cc1 [Clf, clofazimine] | 221.9 (258.0) °C | 4800 µg/mL and 10200 µM | 0.33 | 4.1 | +1 | class II | 45 to 62 | virtually insoluble
CCn1cc(C(=O)O)c(=O)c2cc(F)c(N3CCNCC3)cc21 [Nf, norfloxacin] | 206.1 (222.0) °C | 11000 µg/mL and 34400 µM | 7.93 | > 100 | −1 |  |  | 
CC1COc2c(N3CCN(C)CC3)c(F)cc3c(=O)c(C(=O)O)cn1c23 (centres unmarked) [Of, ofloxacin] | 274.8 (318.8) °C |  | 3.85 | > 100 | −1 |  |  | 
